Results published in patent US9527851B2, “Pyrrole six-membered heteroaryl ring derivative, preparation method thereof, and medicinal uses thereof” (Jiangsu Hengrui Medicine Co., Ltd., priority 2011, dated 2016).

Columns and labels:
JAK1 kinase = JAK1 kinase (Homo sapiens (Human), UniProt P23458); test: Assay for inhibiting JAK1 kinase (in vitro kinase assay, HRP anti-phosphotyrosine antibody/TMB absorbance); type: biochemical; details: 20 μM ATP, 50 minutes at room temperature; read-out: IC50 (JAK1/Bio)
Chain of JAK1 kinase (P23458 whole entry): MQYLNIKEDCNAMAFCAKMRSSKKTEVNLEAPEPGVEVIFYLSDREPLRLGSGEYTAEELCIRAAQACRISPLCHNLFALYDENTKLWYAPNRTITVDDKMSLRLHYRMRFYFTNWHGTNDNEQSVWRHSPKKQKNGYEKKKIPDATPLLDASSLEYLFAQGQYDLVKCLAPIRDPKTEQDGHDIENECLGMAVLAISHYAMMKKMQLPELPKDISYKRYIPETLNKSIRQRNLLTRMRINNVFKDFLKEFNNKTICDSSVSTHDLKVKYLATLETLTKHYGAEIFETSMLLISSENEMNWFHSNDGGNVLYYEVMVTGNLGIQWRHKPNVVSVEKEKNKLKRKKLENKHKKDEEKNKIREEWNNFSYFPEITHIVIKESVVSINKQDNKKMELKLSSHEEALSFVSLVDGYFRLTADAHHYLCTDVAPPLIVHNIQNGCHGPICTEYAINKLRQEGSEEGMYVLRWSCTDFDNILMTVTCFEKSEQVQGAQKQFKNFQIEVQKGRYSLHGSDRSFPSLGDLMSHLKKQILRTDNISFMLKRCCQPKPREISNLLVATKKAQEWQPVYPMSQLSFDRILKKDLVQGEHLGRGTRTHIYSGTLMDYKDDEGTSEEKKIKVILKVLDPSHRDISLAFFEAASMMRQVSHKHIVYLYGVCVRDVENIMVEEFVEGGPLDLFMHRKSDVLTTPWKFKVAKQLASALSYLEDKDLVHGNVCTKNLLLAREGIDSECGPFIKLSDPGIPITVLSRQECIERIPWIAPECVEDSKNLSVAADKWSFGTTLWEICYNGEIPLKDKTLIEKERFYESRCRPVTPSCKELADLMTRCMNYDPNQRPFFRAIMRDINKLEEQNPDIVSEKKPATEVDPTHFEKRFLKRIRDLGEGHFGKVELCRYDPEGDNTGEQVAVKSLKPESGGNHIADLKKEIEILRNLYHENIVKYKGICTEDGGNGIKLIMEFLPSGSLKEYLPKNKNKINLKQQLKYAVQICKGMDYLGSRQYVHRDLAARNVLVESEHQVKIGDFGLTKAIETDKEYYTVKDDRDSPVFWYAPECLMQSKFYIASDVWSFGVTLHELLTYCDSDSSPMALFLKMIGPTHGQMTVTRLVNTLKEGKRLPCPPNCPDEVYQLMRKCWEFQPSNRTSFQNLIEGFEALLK
Protocol: In vitro activity of compounds of the present invention for inhibiting JAK1 kinase was determined by the following method.
IC50 values of test compounds was calculated from the data of the test compounds in inhibiting the activity of JAK1 kinase at different concentrations.

[1] = Pharmacokinetics assay in rats, intragastric administration, plasma by LC/MS/MS; type: in vivo, Sprague-Dawley (SD) rats; details: SD rats, 10 mg/kg
Protocol: Rats were used as test animals. […] The pharmacokinetic behavior of the compounds of the present invention was studied and evaluated in rats.
56 Healthy adult Sprague-Dawley (SD) rats, half male and half female, purchased from SINO-BRITSH SIPPR/BK LAB.
The appropriate amount of test compounds were weighed and mixed with 1.0 mL of dimethyl sulfoxide to prepare a 1.0 mg/mL suspension.
After an overnight fast, SD rats were administered intragastrically at a dose of 10.0 mg/kg and an administration volume of 10 mL/kg.
The plasma samples were stored at −20° C. The rats were fed 2 hours after administration.
Content determination of the test compounds in rat plasma after intragastrically administering at different concentrations: 50 μL of rat plasmas taken at various time points after administration were mixed with 50 μL of internal standard solution and 100 μL of methanol and mixed for 3 minutes by a vortexer. The mixture was centrifuged for 10 minutes at 13,500 rpm. 10 μL of the supernatant was taken from the plasma sample and analyzed by LC-MS/MS.
Pharmacokinetic Parameters of the compounds of the present invention were shown as follows: […]

| IC50 (JAK1 kinase) [µM] | SMILES | also measured |
| --- | --- | --- |
| 0.03 | CN(c1ncnc2[nH]ccc12)[C@H]1C[C@@H]2CN(C(=O)OC(C)(C)C)C[C@@H]2C1 [Example 5, (3aR,5S,6aS)-tert-butyl 5-(methyl(7H-pyrrolo[2,3-d]pyrimidin-4-yl)amino)hexahydro cyclopenta[c]pyrrole-2(1H)-carboxylate] | – |
| 0.171 | CN(c1ncnc2[nH]ccc12)[C@H]1C[C@@H]2CN(C(=O)Nc3nc(O)ns3)C[C@@H]2C1 [Example 156, (3aR,5S,6aS)-N-(3-hydroxy-1,2,4-thiadiazol-5-yl)-5-(methyl(7H-pyrrolo[2,3-d]pyrimidin-4-yl)amino)hexahydrocyclopenta[c]pyrrole-2(1H)-carboxamide] | – |
| – | CN(c1ncnc2[nH]ccc12)[C@H]1C[C@@H]2CN(C(=O)Nc3nc(C4CC4)ns3)C[C@@H]2C1 [Example 125, (3aR,5S,6aS)-N-(3-cyclopropyl-1,2,4-thiadiazol-5-yl)-5-(methyl(7H-pyrrolo[2,3-d]pyrimidin-4-yl)amino)hexahydrocyclopenta[c]pyrrole-2(1H)-carboxamide] | Apparent Distribution Volume Vz/F [1]: 18.063 ± 20.748 L/kg; Area Under Curve AUC [1]: 5997 ± 4741 ng·h/mL; Clearance CL/F [1]: 46.1 ± 35.6 mL/min/kg; Plasma Conc. Cmax [1]: 1061 ± 677 ng/mL |
| 0.033 | CC(=O)N1C[C@H]2C[C@H](N(C)c3ncnc4[nH]ccc34)C[C@H]2C1 [Example 11, 1-((3aR,5S,6aS)-5-(Methyl(7H-pyrrolo[2,3-d]pyrimidin-4-yl)amino)hexahydrocyclopenta[c]pyrrol-2(1H)-yl)ethanone] | – |
| 0.1 | CN(c1ncnc2[nH]ccc12)[C@H]1C[C@@H]2CN(S(C)(=O)=O)C[C@@H]2C1 [Example 51, N-methyl-N-((3aR,5S,6aS)-2-(methylsulfonyl)octahydrocyclopenta[c]pyrrol-5-yl)-7H-pyrrolo[2,3-d]pyrimidin-4-amine] | – |
| 0.049 | COCC(=O)N1C[C@H]2C[C@H](N(C)c3ncnc4[nH]ccc34)C[C@H]2C1 [Example 18, 2-Methoxy-1-((3aR,5S,6aS)-5-(methyl(7H-pyrrolo[2,3-d]pyrimidin-4-yl)amino)hexahydrocyclopenta[c]pyrrol-2(1H)-yl)ethanone] | – |
| 0.08 | CN(c1ncnc2[nH]ccc12)[C@H]1C[C@@H]2CN(C(=O)Cc3nn[nH]n3)C[C@@H]2C1 [Example 85, 1-((3aR,5S,6aS)-5-(methyl(7H-pyrrolo[2,3-d]pyrimidin-4-yl)amino)hexahydrocyclopenta[c]pyrrol-2(1H)-yl)-2-(2H-tetrazol-5-yl)ethanone] | – |
| – | CCc1nsc(NC(=O)N2C[C@H]3C[C@H](N(C)c4ncnc5[nH]ccc45)C[C@H]3C2)n1 [Example 121, (3aR,5S,6aS)-N-(3-ethyl-1,2,4-thiadiazol-5-yl)-5-(methyl(7H-pyrrolo[2,3-d]pyrimidin-4-yl)amino)hexahydrocyclopenta[c]pyrrole-2(1H)-carboxamide] | Apparent Distribution Volume Vz/F [1]: 7.203 ± 8.113 L/kg; Area Under Curve AUC [1]: 9617 ± 7909 ng·h/mL; Clearance CL/F [1]: 31.9 ± 26.9 mL/min/kg; Mean Residence Time MRT [1]: 3.40 ± 0.91 h; Plasma Conc. Cmax [1]: 2071 ± 1473 ng/mL |
| 0.095 | Cc1cnc(NC(=O)N2C[C@H]3C[C@H](N(C)c4ncnc5[nH]ccc45)C[C@H]3C2)s1 [Example 117, (3aR,5S,6aS)-5-(methyl(7H-pyrrolo[2,3-d]pyrimidin-4-yl)amino)-N-(5-methylthiazol-2-yl)hexahydrocyclopenta[c]pyrrole-2(1H)-carboxamide] | – |
| 0.032 | CN(c1ncnc2[nH]ccc12)[C@H]1C[C@@H]2CN(C(=O)CC#N)C[C@@H]2C1 [Example 8, 3-((3aR,5S,6aS)-5-(Methyl(7H-pyrrolo[2,3-d]pyrimidin-4-yl)amino)hexahydrocyclopenta[c]pyrrol-2(1H)-yl)-3-oxopropanenitrile] | – |
| 0.127 | CNC(=O)N1C[C@H]2C[C@H](N(C)c3ncnc4[nH]ccc34)C[C@H]2C1 [Example 80, (3aR,5S,6aS)-N-methyl-5-(methyl(7H-pyrrolo[2,3-d]pyrimidin-4-yl)amino)hexahydrocyclopenta[c]pyrrole-2(1H)-carboxamide] | – |
| – | CN(c1ncnc2[nH]ccc12)[C@H]1C[C@@H]2CN(C(=O)Nc3nc(OCC(C)(C)O)ns3)C[C@@H]2C1 [Example 99, (3aR,5S,6aS)-N-(3-(2-hydroxy-2-methylpropoxy)-1,2,4-thiadiazol-5-yl)-5-(methyl(7H-pyrrolo[2,3-d]pyrimidin-4-yl)amino)hexahydrocyclopenta[c]pyrrole-2(1H)-carboxamide] | Vd/F ([1]; both sexes, Sprague-Dawley, rat, plasma, po, read-out: Apparent Distribution Volume Vz/F): 2.76 ± 1.53 L/kg; AUC ([1]; both sexes, Sprague-Dawley, rat, plasma, po, read-out: Area Under Curve AUC): 14900 ± 10400 ng·h/mL; CL/F ([1]; both sexes, Sprague-Dawley, rat, plasma, po, read-out: Clearance CL/F): 18.3 ± 14.2 mL/min/kg; half-life ([1]; both sexes, Sprague-Dawley, rat, plasma, po, read-out: Half-Life t½ (converted)): 2.1 ± 0.73 h; MRT ([1]; both sexes, Sprague-Dawley, rat, plasma, po, read-out: Mean Residence Time MRT): 3.81 ± 0.82 h; Cmax ([1]; both sexes, Sprague-Dawley, rat, plasma, po, read-out: Plasma Conc. Cmax): 2670 ± 1450 ng/mL |
| 0.113 | CN(c1ncnc2[nH]ccc12)[C@H]1C[C@@H]2CN(C(=O)[C@H](O)c3ccccc3)C[C@@H]2C1 [Example 81, (R)-2-hydroxy-1-((3aR,5S,6aS)-5-(methyl(7H-pyrrolo[2,3-d]pyrimidin-4-yl)amino)hexahydrocyclopenta[c]pyrrol-2(1H)-yl)-2-phenylethanone] | – |
| 0.017 | CN(c1ncnc2[nH]ccc12)[C@H]1C[C@@H]2CN(C(=O)CNS(C)(=O)=O)C[C@@H]2C1 [Example 21, N-(2-((3aR,5S,6aS)-5-(Methyl(7H-pyrrolo[2,3-d]pyrimidin-4-yl)amino)hexahydrocyclopenta[c]pyrrol-2(1H)-yl)-2-oxoethyl)methanesulfonamide] | – |
| 0.05 | CN(c1ncnc2[nH]ccc12)[C@H]1C[C@@H]2CN(C(=O)C(C)(C)O)C[C@@H]2C1 [Example 83, 2-hydroxy-2-methyl-1-((3aR,5S,6aS)-5-(methyl(7H-pyrrolo[2,3-d]pyrimidin-4-yl)amino)hexahydrocyclopenta[c]pyrrol-2(1H)-yl)propan-1-one] | – |
| 0.109 | CN(c1ncnc2[nH]ccc12)[C@H]1C[C@@H]2CN(C(=O)Nc3ccn(C)n3)C[C@@H]2C1 [Example 104, (3aR,5S,6aS)-5-(methyl(7H-pyrrolo[2,3-d]pyrimidin-4-yl)amino)-N-(1-methyl-1H-pyrazol-3-yl)hexahydrocyclopenta[c]pyrrole-2(1H)-carboxamide] | – |

| SMILES | IC50 (JAK1 kinase) [µM] | also measured |
| --- | --- | --- |
| C[C@@H](O)C(=O)N1C[C@H]2C[C@H](N(C)c3ncnc4[nH]ccc34)C[C@H]2C1 [Example 19, (R)-2-Hydroxy-1-((3aR,5S,6aS)-5-(methyl(7H-pyrrolo[2,3-d]pyrimidin-4-yl)amino)hexahydrocyclopenta[c]pyrrol-2(1H)-yl)propan-1-one] | 0.048 | – |
| C[C@H](O)C(=O)N1C[C@H]2C[C@@H](N(C)c3ncnc4[nH]ccc34)C[C@H]2C1 [Example 71, (S)-2-hydroxy-1-((3aR,5S,6aS)-5-(methyl(7H-pyrrolo[2,3-d]pyrimidin-4-yl)amino)hexahydrocyclopenta[c]pyrrol-2(1H)-yl)propan-1-one] | 0.036 | – |
| CN(c1ncnc2[nH]ccc12)[C@H]1C[C@@H]2CN(C(=O)C3CC3)C[C@@H]2C1 [Example 13, Cyclopropyl((3aR,5S,6aS)-5-(methyl(7H-pyrrolo[2,3-d]pyrimidin-4-yl)amino)hexahydrocyclopenta[c]pyrrol-2(1H)-yl)methanone] | 0.03 | – |
| CN(c1ncnc2[nH]ccc12)[C@H]1C[C@@H]2CN(CC#N)C[C@@H]2C1 [Example 26, 2-((3aR,5S,6aS)-5-(Methyl(7H-pyrrolo[2,3-d]pyrimidin-4-yl)amino)hexahydrocyclopenta[c]pyrrol-2(1H)-yl)acetonitrile] | 0.046 | – |
